# Laboratory results from patent US5958407A, “Ileus treatment method” (The Regents of the Uinversity of California, priority 1998, dated 1999).
# Several values for one entry are separate records, joined by “and”; a condition that tells them apart may be missing. Equal entries are not always repeated. Where two headings read alike, the source gives them in different places. No end group written: not given here.
# Legend:
# tryptase [1] = target: T1, tryptase (Homo sapiens, UniProt Q15661); experiment: Ca2+ response of myocytes to tryptase pre-incubated with inhibitor; format: cell-based
# Experimental: (§1) Myocytes were incubated in physiological salt solution (PSS) with 2.5 μM Fura-2/AM for 20 min at 37° C. Fluorescence was measured in individual cells using an ICCD video camera (Stanford Photonics, Stanford, Calif.) and a video microscopy acquisition program (Axon Industries, Foster City, Calif.). Fluorescence was measured at 340 and 380 nm excitation and 510 nm emission. The ratio of the fluorescence at the two excitation wavelengths, which is proportional to the [Ca^2+ ]i, was calculated. Fresh cells were studied with each agonist and a minimum of 10 cells analyzed in 2-4 experiments on different days.
# tryptase [2] = target: T1, tryptase; experiment: Inhibition of the Ca2+ response of myocytes to HMC-1 mast cell filtrate; format: cell-based; set-up: HMC-1 human mast cells; endogenous in cells; host or cells: HMC-1 human mast cells, filtrate after degranulation with substance P
# Experimental: (§2) Degranulation of HMC-1 cells (human mast cell line) with substance P was induced, and a filtrate for Ca^2+ responses in myocytes was assessed, to determine if mast cells release proteases that cleave and activate PAR-2.
# as §1
# HMC-1 human mast cells (300 μl of 7×10^6 /ml in PSS containing 25 μg/ml heparin) were incubated with 100 μM substance P for 5 min at room temperature to induce degranulation. The suspension was filtered and assayed for stimulation of Ca^2+ mobilization.
# tryptase [3] = target: T1, tryptase; conditions: cited from earlier work
# [4] = tested on: strips of rat proximal colon
# [5] = tested on: mice with cecal manipulation; experiment: GI transit in mice with surgically induced ileus; format: in vivo; conditions: 1 mg/kg orally 30 minutes prior to anesthesia
# Experimental: GI transit was measured in fed mice by oral gavage pf 0.3 ml carmine red in methylcellulose. Whole GI transit time was defined as the appearance of the first red fecal pellet. Upper GI transit time was defined as the appearance as the percentage of the distance traveled along the small intestine by the marker in 30 minutes. Cecal manipulation for 5 minutes or skin incision alone was performed under halothane anesthesia and the marker administered 1 hour after surgery.
# Skin incision alone had little effect on transit time.
# PAR-2 = target: T2, PAR-2 (Rattus norvegicus, UniProt Q63645); experiment: Ca2+ mobilization by colonic myocytes (Fura-2); format: cell-based; conditions: for EC50: read-out: EC50, increase in [Ca2+]i
# T2 construct: endogenous in cells; host or cells: cultured colonic myocytes (rat)
# T2 sequence (Q63645 26-397): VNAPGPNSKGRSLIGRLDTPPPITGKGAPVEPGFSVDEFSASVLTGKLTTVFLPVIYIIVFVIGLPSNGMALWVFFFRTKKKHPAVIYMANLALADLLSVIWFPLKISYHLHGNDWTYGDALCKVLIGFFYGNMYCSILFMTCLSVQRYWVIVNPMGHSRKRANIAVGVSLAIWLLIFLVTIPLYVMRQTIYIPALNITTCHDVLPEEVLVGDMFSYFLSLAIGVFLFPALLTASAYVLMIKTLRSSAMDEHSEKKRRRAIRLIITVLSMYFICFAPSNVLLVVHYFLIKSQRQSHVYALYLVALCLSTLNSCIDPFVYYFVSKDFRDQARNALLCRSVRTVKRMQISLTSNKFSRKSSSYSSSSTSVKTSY
# Experimental: Ac. Ca^2+ Mobilization by Colonic Myocytes. The activation of PAR-2 in myocytes was assessed by measuring Ca^2+ mobilization, as described in Example 3.
# as §2, §1
# trypsin = experiment: Ca2+ response of myocytes to trypsin pre-incubated with inhibitor; format: cell-based; conditions: 1 nM trypsin; 10 mg/ml SBTI, 60 min at 37° C. before assay
# Experimental: Ac. Ca^2+ Mobilization by Colonic Myocytes. The activation of PAR-2 in myocytes was assessed by measuring Ca^2+ mobilization, as described in Example 3. Trypsin and AP (SLIGRL-NH2) stimulated a prompt increase in [Ca^2+ ]i.
# as §1
# T1 sequence (Q15661 31-275): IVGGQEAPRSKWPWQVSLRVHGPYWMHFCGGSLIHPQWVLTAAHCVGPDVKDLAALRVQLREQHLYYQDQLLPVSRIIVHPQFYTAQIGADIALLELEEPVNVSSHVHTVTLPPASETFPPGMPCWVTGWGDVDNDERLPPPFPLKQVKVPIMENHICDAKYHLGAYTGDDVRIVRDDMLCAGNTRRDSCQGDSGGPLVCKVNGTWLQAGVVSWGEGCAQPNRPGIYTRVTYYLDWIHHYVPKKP
molecule,measurement,setting,value
"N=C(N)c1ccc2nc(Cc3nc4ccc(C(=N)N)cc4[nH]3)[nH]c2c1 [BABIM, bis(5-amidino-2-benzimidazolyl) methane]",Ca2+ response to tryptase after pre-incubation with inhibitor,tryptase [1],no Ca^2+ response
same,inhibition of the [Ca2+]i response to HMC-1 mast cell filtrate,tryptase [2],46.5±1% and ~ 50%
"CC(C)(C)c1ccc(OC(=O)[C@H]2CC[C@H](CNC(=N)N)CC2)cc1 [GMCHA-OPhBut, trans-4-guanidinomethylcyclohexane-carboxylic acid 4-tert butylphenyl ester]",concentrations that inhibit tryptase activity,tryptase [3],1 to 100 µM
"COC(=O)[C@@H](N)CCCNC(=N)N[N+](=O)[O-] [L-NAME, L-N^G -nitro arginine methyl ester]",effect of pre-incubation on the effects of trypsin and AP,[4]; 100 μM L-NAME for 15 min,did not prevent
CCCCC[C@H](O)/C=C/[C@H]1[C@H](O)CC(=O)[C@@H]1C/C=C\CCCC(=O)O [PGE2],effect on colonic motility,[4]; 30 nM PGE2,inhibited colonic motility
COc1ccc2c(c1)c(CC(=O)O)c(C)n2C(=O)c1ccc(Cl)cc1 [indomethacin],effect of pre-incubation on the response to trypsin and AP,[4]; 1 μM indomethacin for 15 min,had no effect
CN1CCC(=C2c3ccccc3CC(=O)c3sccc32)CC1 [ketotifen],effect on inhibition of GI transit produced by abdominal surgery,[5]; cecal manipulation,partially reversed
same,effect on transit time in unoperated animals,[5]; unoperated,little effect
CC(=O)N[C@@H](CC(C)C)C(=O)N[C@@H](CC(C)C)C(=O)N[C@H](C=O)CCCNC(=N)N [leupeptin],Ca2+ response to tryptase after pre-incubation with inhibitor,"tryptase [1]; 40 nM tryptase, 1 μM inhibitor, 5 min at room temperature before assay",no Ca^2+ response
same,inhibition of the [Ca2+]i response to HMC-1 mast cell filtrate,"tryptase [2]; myocytes, filtrate of HMC-1 cells degranulated with substance P",46.5±4%
NC1=N[C@H](O)[C@H]2[C@H]3O[C@]4(O)O[C@@H]([C@@H](O)[C@@]2(N1)[C@@H]4O)[C@]3(O)CO [tetrodotoxin],effect on amplitude and frequency of contractions,[4],immediate and sustained increase
HOE-140,effect on bradykinin-induced inhibition of spontaneous contractions,"[4]; 100 nM bradykinin, pre-incubation with 100 nM HOE-140 for 5 min",abolished
same,effect on the inhibition of colonic motility by trypsin and AP,[4]; HOE-140,had no effect
RPPGFSPFR [bradykinin],effect on spontaneous contractions,[4]; 100 nM bradykinin,marked inhibition of spontaneous contractions
"SLIGRL-NH2 [AP, SLIGRL-NH2]",EC50,PAR-2; colonic myocytes,~1000 nM
substance P: used to induce degranulation of HMC-1 mast cells,Ca2+ mobilization in myocytes,PAR-2; 100 μM substance P,did not stimulate
tryptase: mast cell protease released upon degranulation,EC50,PAR-2; colonic myocytes,~100 nM
same,fold less potent than trypsin (Ca2+ mobilization),"PAR-2; colonic myocytes, tryptase vs trypsin",100 fold
same,effect on amplitude of spontaneous contractions,[4]; tryptase at concentrations of up to 90 nM,did not alter the amplitude of spontaneous contractions
"trypsin: protease that cleaves and activates PAR-2 (protein, UniProt P00760 24-246, looked up) Serine protease 1: IVGGYTCGANTVPYQVSLNSGYHFCGGSLINSQWVVSAAHCYKSGIQVRLGEDNINVVEGNEQFISASKSIVHPSYNSNTLNNDIMLIKLKSAASLNSRVASISLPTSCASAGTQCLISGWGNTKSSGTSYPDVLKCLKAPILSDSSCKSAYPGQITSNMFCAGYLEGGKDSCQGDSGGPVVCSGKLQGIVSWGSGCAQKNKPGVYTKVCNYVSWIKQTIASN",fold more potent than AP (Ca2+ mobilization),PAR-2,"1,000 fold"
same,EC50,PAR-2; colonic myocytes,~1 nM
same,effect on motility of tetrodotoxin-treated tissues,[4],inhibited this elevated motility
same,fold more potent than AP (colonic motility),[4],10 fold
same,time to recovery of spontaneous activity after washing,"[4]; 1 μM trypsin for 5 min, then washed extensively",> 6 h
same,inhibition of mean amplitude at highest concentration,[4]; 3 μM trypsin,60%
same,threshold for inhibition of mean amplitude of spontaneous contractions,[4]; colon strips (mucosa plus muscle),300 nM
same,effect on spontaneous contractions in the absence of the mucosa,[4]; colonic strips with mucosa removed,inhibited spontaneous contractions
same,EC50,"[4]; read-out: EC50, reduction in mean amplitude of spontaneous contractions, colon strips (mucosa plus muscle)",~500 nM
same,delay before inhibition of motility,"[4]; trypsin at 1 μM, AP concentration not stated",31 ± 5 s
"SBTI: SBTI, pre-incubated with trypsin before assay; abbreviation not expanded (protein, UniProt P01070 25-205, looked up) Trypsin inhibitor A: DFVLDNEGNPLENGGTYYILSDITAFGGIRAAPTGNERCPLTVVQSRNELDKGIGTIISSPYRIRFIAEGHPLSLKFDSFAVIMLCVGIPTEWSVVEDLPEGPAVKIGENKDAMDGWFRLERVSDDEFNNYKLVFCPQQAEDDKCGDIGISIDHDDGTRRLVVSKNKPLVVQFQKLDKESL",Ca2+ response to trypsin after pre-incubation with inhibitor,trypsin,no Ca^2+ response
